Results taken from paper PMC8654833 (Scientific Reports, 2021).
“And” between values parts separate entries of the source, which are not always exact repeats. Equal entries are not always repeated.

Key:
5-HT1B = target: T1, 5-HT1B (Rattus norvegicus, UniProt P28564); test: Single-concentration radioligand binding screen (Eurofins Cerep), 5-HT1B; settings: read-out: %Binding inhibition at 10 µM
T1 construct: Eurofins Cerep (contract assay)
Protocol: (§1) This study included binding assays (87 GPCR targets), measured as % of binding inhibition of a reference radioligand, as well as uptake and enzyme assays (19 targets), the latter measured as % inhibition of control enzyme activity. […] It was performed by radioligand binding competition by Euroscreen (Euroscreen FAST, Belgium). The following nanomolar concentrations were tested in duplicate: 0.001, 0.01, 0.1, 1, 10, 100, 1000, 10,000. Dose–response curves were fitted with the least squares method. IC50 results are shown as pIC50, corresponding to the negative log10 of IC50 in molar.

DAT = target: T2, DAT (Homo sapiens, UniProt Q01959); test: Single-concentration radioligand binding screen (Eurofins Cerep), dopamine transporter; settings: single concentration 10 µM screen, [3H]BTCP
T2 construct: Euroscreen FAST (contract assay)
T2 sequence (Q01959 whole entry, species assumed): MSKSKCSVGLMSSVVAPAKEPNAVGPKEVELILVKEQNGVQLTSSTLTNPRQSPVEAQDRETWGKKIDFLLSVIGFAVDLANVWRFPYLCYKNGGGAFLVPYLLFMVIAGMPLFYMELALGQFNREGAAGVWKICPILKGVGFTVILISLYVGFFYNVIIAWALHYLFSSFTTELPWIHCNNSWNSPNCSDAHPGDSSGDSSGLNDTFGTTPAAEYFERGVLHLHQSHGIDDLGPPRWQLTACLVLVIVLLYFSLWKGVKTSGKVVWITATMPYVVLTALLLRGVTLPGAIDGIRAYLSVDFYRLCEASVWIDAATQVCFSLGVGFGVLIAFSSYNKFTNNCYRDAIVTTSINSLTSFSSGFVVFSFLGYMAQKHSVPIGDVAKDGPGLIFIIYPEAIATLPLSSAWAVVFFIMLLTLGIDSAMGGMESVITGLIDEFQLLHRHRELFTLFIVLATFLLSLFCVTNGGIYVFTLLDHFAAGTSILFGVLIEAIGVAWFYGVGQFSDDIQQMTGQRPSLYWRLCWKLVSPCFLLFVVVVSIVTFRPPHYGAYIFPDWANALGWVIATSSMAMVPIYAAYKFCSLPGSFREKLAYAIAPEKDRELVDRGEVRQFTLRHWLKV
Protocol: as §1

Ca^2+ channel, ds = test: Single-concentration radioligand binding screen (Eurofins Cerep), Ca2+ channel diltiazem site; settings: single concentration 10 µM screen, [3H]diltiazem
Protocol: as §1

5-HT7 = target: T3, 5-HT7 (Homo sapiens, UniProt P34969); test: Single-concentration radioligand binding screen (Eurofins Cerep), 5-HT7; settings: single concentration 10 µM screen, [3H]LSD
T3 construct: Euroscreen FAST (contract assay)
T3 sequence (P34969 whole entry, species assumed): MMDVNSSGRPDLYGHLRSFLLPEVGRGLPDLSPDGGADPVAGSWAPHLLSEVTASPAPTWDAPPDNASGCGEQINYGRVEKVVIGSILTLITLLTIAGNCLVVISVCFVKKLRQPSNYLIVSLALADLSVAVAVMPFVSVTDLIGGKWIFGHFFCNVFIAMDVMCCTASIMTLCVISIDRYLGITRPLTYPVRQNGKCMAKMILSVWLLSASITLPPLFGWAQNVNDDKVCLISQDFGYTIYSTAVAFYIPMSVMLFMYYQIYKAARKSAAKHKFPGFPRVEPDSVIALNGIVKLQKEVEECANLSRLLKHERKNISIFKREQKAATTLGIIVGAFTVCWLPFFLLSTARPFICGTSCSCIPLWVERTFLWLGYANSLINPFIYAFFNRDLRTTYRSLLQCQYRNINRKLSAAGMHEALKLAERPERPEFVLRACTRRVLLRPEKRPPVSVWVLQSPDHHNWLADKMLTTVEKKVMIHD
Protocol: as §1

5-HT2C = target: T4, 5-HT2C (Homo sapiens, UniProt P28335); test: Single-concentration radioligand binding screen (Eurofins Cerep), 5-HT2C; settings: single concentration 10 µM screen, [3H]mesulergine
T4 construct: Euroscreen FAST (contract assay)
T4 sequence (P28335 33-458): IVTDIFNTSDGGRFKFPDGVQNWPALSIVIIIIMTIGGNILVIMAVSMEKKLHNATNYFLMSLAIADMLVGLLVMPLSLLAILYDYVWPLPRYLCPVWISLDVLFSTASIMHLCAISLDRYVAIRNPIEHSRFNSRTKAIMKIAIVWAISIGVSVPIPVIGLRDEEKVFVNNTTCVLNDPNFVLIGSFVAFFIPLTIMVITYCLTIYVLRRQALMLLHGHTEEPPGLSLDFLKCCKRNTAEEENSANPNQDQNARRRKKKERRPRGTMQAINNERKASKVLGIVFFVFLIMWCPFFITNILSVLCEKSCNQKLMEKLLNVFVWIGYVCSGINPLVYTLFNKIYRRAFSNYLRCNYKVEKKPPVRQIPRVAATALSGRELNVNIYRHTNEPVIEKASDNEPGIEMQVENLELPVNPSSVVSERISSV
Protocol: as §1

5-HT5A = target: T5, 5-HT5A (Homo sapiens, UniProt P47898); test: Single-concentration radioligand binding screen (Eurofins Cerep), 5-HT5A; settings: single concentration 10 µM screen, [3H]LSD
T5 construct: Euroscreen FAST (contract assay)
T5 sequence (P47898 whole entry, species assumed): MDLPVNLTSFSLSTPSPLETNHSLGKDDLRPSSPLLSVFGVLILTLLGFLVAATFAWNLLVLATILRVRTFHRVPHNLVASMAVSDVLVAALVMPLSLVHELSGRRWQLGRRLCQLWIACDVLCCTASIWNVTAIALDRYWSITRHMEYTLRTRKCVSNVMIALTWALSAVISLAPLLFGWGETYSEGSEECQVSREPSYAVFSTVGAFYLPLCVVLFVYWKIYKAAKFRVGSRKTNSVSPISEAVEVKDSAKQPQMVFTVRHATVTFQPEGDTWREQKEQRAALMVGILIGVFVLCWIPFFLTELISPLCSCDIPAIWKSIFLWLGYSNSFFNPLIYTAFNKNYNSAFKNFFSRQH
Protocol: as §1

Ca^2+ channel, vs = test: Radioligand binding competition dose-response (Euroscreen), Ca2+ channel verapamil site
Protocol: as §1

Sod1^G86R mice = test: Body weight, grip strength, onset and survival follow-up in ALS mouse model; type: in vivo; settings: for median survival: p > 0.05 vs vehicle (109 days)
Description: Osmotic mini-pumps were collected at endstage, and mini-pump emptying was systematically checked. After mini-pump implantation, mice were longitudinally followed for body weight, grip strength and survival.
To this aim, we measured mitral valve thickness using histology (Fig. 3).
Sod1^G86R mice on FVB/N background were produced by rapid lineage extension at Charles River facility, France. The resulting animals were F1 hybrid FVB/NRj and FVB/NCrl. During experimentation, mice were housed at the animal facility of the Faculty of Medicine of the University of Strasbourg, in a conventional sanitary status. […] We included both females and males in equal proportions. […] Mice were sacrificed at end-stage by lethal intraperitoneal injection of pentobarbital (Doléthal 120 mg/kg, Vetoquinol, France). Spinal cord, brain and blood samples were then collected. All animal care and procedures were in accordance with institutional guidelines and European regulations.
Mice were visually monitored daily for any potential ethical issue. Body weight and muscular strength were monitored twice a week. Muscular strength was assessed using a gripmeter test (ALG01, Bioseb, France). Results are the mean of three successive measures and were normalized by body weight. Onset of the pathology was calculated as the time between birth and peak of body weight. Duration of the disease is the time between onset and death of the mouse. End-stage was defined as the inability of the animal to turn around after 3 s placed on the back, and subsequent euthanasia followed. Muscular strength and weight loss are presented as percent loss from disease onset. […] Survival is presented as Kaplan–Meier curves.

5-HT2B = 5-HT2B (Homo sapiens, UniProt P41595); test: biochemical; settings: read-out: %Binding inhibition at 10 µM, dose-response study, maximal concentration 10 µM, [3H]mesulergine
5-HT2B, sequence (P41595 whole entry, species assumed): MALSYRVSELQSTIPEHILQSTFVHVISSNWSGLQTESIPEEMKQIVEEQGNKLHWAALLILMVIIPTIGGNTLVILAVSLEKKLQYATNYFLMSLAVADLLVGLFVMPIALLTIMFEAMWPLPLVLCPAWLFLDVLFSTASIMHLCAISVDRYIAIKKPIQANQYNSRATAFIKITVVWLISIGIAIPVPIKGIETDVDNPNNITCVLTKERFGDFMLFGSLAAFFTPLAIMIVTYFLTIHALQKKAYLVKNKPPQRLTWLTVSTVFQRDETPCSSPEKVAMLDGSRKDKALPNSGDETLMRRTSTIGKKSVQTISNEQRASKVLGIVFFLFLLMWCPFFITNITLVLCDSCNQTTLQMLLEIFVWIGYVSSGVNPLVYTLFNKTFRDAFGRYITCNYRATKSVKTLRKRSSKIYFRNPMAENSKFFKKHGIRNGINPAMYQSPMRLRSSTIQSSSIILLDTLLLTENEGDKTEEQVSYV

[1] = Plasma pharmacokinetics after IV, PO or SC administration; settings: for half-life / bioavailability: in vivo
[2] = IV 2 mg/kg, individual mice n1-n3, 2 mg/kg
[3] = PO 10 mg/kg, individual mice n1-n3, 10 mg/kg
[4] = SC 10 mg/kg, individual mice n1-n3, 10 mg/kg

T1 sequence (P28564 whole entry): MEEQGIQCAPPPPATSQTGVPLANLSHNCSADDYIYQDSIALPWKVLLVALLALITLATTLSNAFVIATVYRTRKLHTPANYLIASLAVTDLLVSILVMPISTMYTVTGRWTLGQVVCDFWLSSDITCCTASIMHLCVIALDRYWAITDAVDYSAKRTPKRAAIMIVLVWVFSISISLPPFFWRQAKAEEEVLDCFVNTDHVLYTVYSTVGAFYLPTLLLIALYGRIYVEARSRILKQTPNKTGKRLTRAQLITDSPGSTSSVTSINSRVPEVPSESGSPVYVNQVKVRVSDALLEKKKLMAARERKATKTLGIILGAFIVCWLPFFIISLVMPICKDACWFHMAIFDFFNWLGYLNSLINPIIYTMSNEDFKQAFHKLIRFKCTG

Which inhibition at 10 µM (5-HT1B) does the source give for `CC(N)Cc1c[nH]c2ccc(OCc3cccs3)cc12` (stereo not drawn) [BW, 1-[5-(thiophen-2-ylmethoxy)-1H-indol-3-yl]propan-2-amine] here?
The inhibition at 10 µM was 92%.

And the inhibition at 10 µM (DAT)?
The inhibition at 10 µM was 81.9%.

And the “%Binding inhibition at 10 µM” value (Ca^2+ channel, ds)?
Its value is 66.3%.

What about the inhibition at 10 µM (5-HT7) of the same molecule?
The inhibition at 10 µM was 89.5%.

And the inhibition at 10 µM (5-HT2C)?
The inhibition at 10 µM was 97.8%.

What about the inhibition at 10 µM (5-HT5A) of the same molecule?
The inhibition at 10 µM was 54.6%.

What about the pIC50 (Ca^2+ channel, vs; [3H]D888 competition) of the same molecule?
The pIC50 was 5.21.

And the “%Binding inhibition at 10 µM” value (Ca^2+ channel, vs; dose-response study, maximal concentration 10 µM, [3H]D888)?
Its value is 51.29%.

And the “pIC50 difference as compared to 5-HT2BR” value (Ca^2+ channel, vs; verapamil site of calcium channel vs 5-HT2BR)?
Its value is 2.3 log10.

And the median survival (Sod1^G86R mice; 1 mg/kg/d)?
Its median survival is 107 days.

And the median survival (Sod1^G86R mice; 3 mg/kg/d)?
Its median survival is 109 days.

And the disease onset (Sod1^G86R mice; 1 or 3 mg/kg/d, compared to vehicle)?
Its disease onset is “unchanged”.

What about the inhibition at 10 µM (5-HT2B) of the same molecule?
Its inhibition at 10 µM is 100%.

What about the “plasma detection at 24 h” value ([1]; 24 h after a single administration (data not shown)) of the same molecule?
Its value is “no compound could be detected”.

What about the half-life ([1]; CD-1, mouse, iv, 2 mg/kg, T1/2, IV 2 mg/kg, individual mice n1-n3) of the same molecule?
Its half-life is 0.98 h.

And the half-life ([1]; CD-1, mouse, iv, 2 mg/kg, T1/2, IV 2 mg/kg, mean)?
The half-life was 0.93 h.

What about the bioavailability ([1]; CD-1, mouse, po, 10 mg/kg, PO 10 mg/kg) of the same molecule?
The bioavailability was 4.72%.

And the half-life ([1]; CD-1, mouse, po, 10 mg/kg, T1/2, PO 10 mg/kg, mean)?
The half-life was 2.55 h.

What about the bioavailability ([1]; CD-1, mouse, sc, 10 mg/kg, SC 10 mg/kg) of the same molecule?
The bioavailability was 35%.

And the half-life ([1]; CD-1, mouse, sc, 10 mg/kg, T1/2, SC 10 mg/kg, individual mice n1-n3)?
The half-life was 1.14 h.

And the half-life ([1]; CD-1, mouse, sc, 10 mg/kg, T1/2, SC 10 mg/kg, mean)?
Its half-life is 1.37 h.

What about the AUC0-inf ([1]; CD-1, mouse, plasma, iv, 2 mg/kg, AUC0-inf, IV 2 mg/kg, individual mice n1-n3) of the same molecule?
Its AUC0-inf is 289 ng·h/mL.

What about the AUC0-inf ([1]; CD-1, mouse, plasma, iv, 2 mg/kg, AUC0-inf, IV 2 mg/kg, mean) of the same molecule?
The AUC0-inf was 236 ng·h/mL.

And the C0 ([1]; CD-1, mouse, plasma, iv, 2 mg/kg, C0, IV 2 mg/kg, individual mice n1-n3)?
Its C0 is 406 ng/mL.

And the C0 ([1]; CD-1, mouse, plasma, iv, 2 mg/kg, C0, IV 2 mg/kg, mean)?
Its C0 is 354 ng/mL.

What about the AUC0-inf ([1]; CD-1, mouse, plasma, po, 10 mg/kg, AUC0-inf, PO 10 mg/kg, individual mice n1-n3) of the same molecule?
Its AUC0-inf is 239 ng·h/mL.

What about the AUC0-inf ([1]; CD-1, mouse, plasma, po, 10 mg/kg, AUC0-inf, PO 10 mg/kg, mean) of the same molecule?
Its AUC0-inf is 278 ng·h/mL.

And the Cmax ([1]; CD-1, mouse, plasma, po, 10 mg/kg, Cmax, PO 10 mg/kg, mean)?
Its Cmax is 77 ng/mL.

And the Tmax ([1]; CD-1, mouse, plasma, po, 10 mg/kg, Tmax, PO 10 mg/kg, mean)?
The Tmax was 0.58 h.

And the AUC0-inf ([1]; CD-1, mouse, plasma, sc, 10 mg/kg, AUC0-inf, SC 10 mg/kg, individual mice n1-n3)?
Its AUC0-inf is 2030 ng·h/mL.

And the AUC0-inf ([1]; CD-1, mouse, plasma, sc, 10 mg/kg, AUC0-inf, SC 10 mg/kg, mean)?
The AUC0-inf was 2070 ng·h/mL.

And the Cmax ([1]; CD-1, mouse, plasma, sc, 10 mg/kg, Cmax, SC 10 mg/kg, individual mice n1-n3)?
Its Cmax is 1100 ng/mL.

And the Cmax ([1]; CD-1, mouse, plasma, sc, 10 mg/kg, Cmax, SC 10 mg/kg, mean)?
The Cmax was 1020 ng/mL.

And the Tmax ([1]; CD-1, mouse, plasma, sc, 10 mg/kg, Tmax, SC 10 mg/kg, mean)?
The Tmax was 0.19 h.

What about the AUC0-inf [1, 2] of the same molecule?
The AUC0-inf was 221 ng·h/mL and 199 ng·h/mL.

And the AUCExtra [1, 2]?
The AUCExtra was 4.8% and 3.5% and 4.5%.

And the C0 [1, 2]?
The C0 was 290 ng/mL and 366 ng/mL.

What about the T1/2 [1, 2] of the same molecule?
The T1/2 was 0.84 h and 0.98 h.

What about the AUCExtra ([1]; IV 2 mg/kg, mean) of the same molecule?
Its AUCExtra is 4.3%.

And the AUC0-inf [1, 3]?
Its AUC0-inf is 294 ng·h/mL and 302 ng·h/mL.

What about the AUCExtra [1, 3] of the same molecule?
The AUCExtra was 29.9% and 7.2% and 1.0%.

And the Cmax [1, 3]?
The Cmax was 36.5 ng/mL and 61.5 ng/mL and 132 ng/mL.

What about the T1/2 [1, 3] of the same molecule?
Its T1/2 is 4.50 h and 2.01 h and 1.13 h.

What about the Tmax [1, 3] of the same molecule?
Its Tmax is 0.25 h and 1.00 h.

What about the AUCExtra ([1]; PO 10 mg/kg, mean) of the same molecule?
Its AUCExtra is 12.7%.

What about the AUC0-inf [1, 4] of the same molecule?
Its AUC0-inf is 2246 ng·h/mL and 1938 ng·h/mL.

What about the AUCExtra [1, 4] of the same molecule?
The AUCExtra was 0.7% and 1.4% and 3.3%.

And the Cmax [1, 4]?
Its Cmax is 1010 ng/mL and 935 ng/mL.

What about the T1/2 [1, 4] of the same molecule?
Its T1/2 is 1.2 h and 1.65 h.

And the Tmax [1, 4]?
The Tmax was 0.25 h (2×) and 0.08 h.

And the AUCExtra ([1]; SC 10 mg/kg, mean)?
Its AUCExtra is 1.8%.
